# Test results from patent US8318730B2, “Fused hetrocyclic compounds” (Synta Pharmaceuticals Corporation, priority 2003, dated 2012).
# System: IL-12 production
# Assay: In vitro assay of Example 12: inhibition of IL-12 production in IFNγ/LPS- or IFNγ/SAC-stimulated cells, ELISA
# Format: cell-based, human
# Details: Homo sapiens; assay of Example 12; if more than one assay was performed, only the most active IC50 result is reported
# From the text: The biological activities of a compound can be evaluated by a number of cell-based assays. One of such assays can be conducted using cells from human peripheral blood mononuclear cells (PBMC) or human monocytic cell line (THP-1). The cells are stimulated with a combination of human interferon-γ (IFNγ) and lipopolysaccharide or a combination of IFNγ and Staphylococcus aureus Cowan I in the presence of a test compound. The level of inhibition of IL-12 production can be measured by determining the amount of p70 by using a sandwich ELISA assay with anti-human IL-12 antibodies. IC50 of the test compound can then be determined. Specifically, PBMC or THP-1 cells are incubated with the test compound. Cell viability was assessed using the bioreduction of MTS [3-(4,5-dimethylthiazol-2-yl)-5-(3-carboxymethoxyphenyl)-2-(4-sulfophenyl)-2H-tetrazolium] (Promega, Madison, Wis.).
# Staphylococcus aureus Cowan I (SAC) is obtained from Calbiochem (La Jolla, Calif.), and lipopolysaccharide (LPS, Serratia marscencens) is obtained from Sigma (St. Louis, Mo.). Human and mouse recombinant IFNγ are purchased from Boehringer Mannheim (Mannheim, Germany) and Pharmingen (San Diego, Calif.), respectively.
# Human PBMC are isolated by centrifugation using Ficoll-Paque (Pharmacia Biotech, Uppsala, Sweden) and prepared in RPMI medium supplemented with 10% fetal calf serum (FCS), 100 U/mL penicillin, and 100 μg/mL streptomycin. PBMC are plated in wells of a 96-well plate at a concentration of 5×10^5 cells/well, and primed by adding IFNγ (30 U/mL) for 22 h and stimulated by adding LPS (1 μg/mL), or by adding IFNγ (100 U/mL) and then stimulated by adding SAC (0.01%). A test quinazoline compound is dissolved in DMSO, and added to wells of the 96-well plate. The final DMSO concentration is adjusted to 0.25% in all cultures, including the compound-free control. Human THP-1 cells are plated in wells, primed by adding IFNγ (100 U/mL) for 22 h and stimulated by adding SAC (0.025%) in the presence of different concentrations of the quinazoline compound. Cell-free supernatants are taken 18 h later for measurement of cytokines. Cell viability is assessed using the bioreduction of MTS. Cell survival is estimated by determining the ratio of the absorbance in compound-treated groups versus compound-free control.
# The supernatant is assayed for the amount of IL-12p40, IL-12p70, or IL-10 by using a sandwich ELISA with anti-human antibodies, i.e., a Human IL-12 p40 ELISA kit from R&D Systems (Berkeley, Calif.), and a Human IL-12 p70 or IL-10 ELISA kit from Endogen (Cambridge, Mass.). Assays are based on the manufacturer's instructions.
# The biological activities of quinazoline compounds are tested on human PBMC or THP-1 cells.
row,Molecule,IC50 [nM]
1,"Cc1cccc(-c2ccc3nc(OCCc4ccccn4)nc(N4CCOCC4)c3c2)c1 [Compound 16, 4-Morpholin-4-yl-2-(2-pyridin-2-yl-ethoxy)-6-m-tolyl-quinazoline]",86
2,"COc1ccc(CCOc2nc(N3CCOCC3)c3cc(-c4cccc(C#N)c4)ccc3n2)cc1OC [Compound 23, 3-{2-[2-(3,4-Dimethoxy-phenyl)-ethoxy]-4-morpholin-4-yl-quinazolin-6-yl}-benzonitrile]",> 10000
3,"COc1ccc(CCOc2nc(N3CCOCC3)c3cc(-c4cc(C)cc(C)c4)ccc3n2)cc1OC [Compound 27, 2-[2-(3,4-Dimethoxy-phenyl)-ethoxy]-6-(3,5-dimethyl-phenyl)-4-morpholin-4-yl-quinazoline]",470
4,"COc1ccc(CCOc2nc(N3CCOCC3)c3cc(-c4cccc(C(F)(F)F)c4)ccc3n2)cc1OC [Compound 20, 2-[2-(3,4-Dimethoxy-phenyl)-ethoxy]-4-morpholin-4-yl-6-(3-trifluoromethyl-phenyl)-quinazoline]",107
5,"COc1cccc(-c2ccc3nc(OCCc4ccc(OC)c(OC)c4)nc(N4CCOCC4)c3c2)c1 [Compound 25, 2-[2-(3,4-Dimethoxy-phenyl)-ethoxy]-6-(3-methoxy-phenyl)-4-morpholin-4-yl-quinazoline]",400
6,"COc1ccc(CCOc2nc(N3CCOCC3)c3cc(-c4ccccc4)ccc3n2)cc1OC [Compound 19, 2-[2-(3,4-Dimethoxy-phenyl)-ethoxy]-4-morpholin-4-yl-6-phenyl-quinazoline]",6910
7,"COCCOc1nc(N2CCOCC2)c2cc(-c3cccc(C)c3)ccc2n1 [Compound 13, 2-(2-Methoxy-ethoxy)-4-morpholin-4-yl-6-m-tolyl-quinazoline]",1820
8,"Cc1cccc(-c2ccc3nc(OCCO)nc(N4CCOCC4)c3c2)c1 [Compound 18, 2-(4-Morpholin-4-yl-6-m-tolyl-quinazolin-2-yloxy)-ethanol]",162
9,"COc1ccc(CCOc2nc(N3CCOCC3)c3cc(-c4ccc(C)cc4)ccc3n2)cc1OC [Compound 21, 2-[2-(3,4-Dimethoxy-phenyl)-ethoxy]-4-morpholin-4-yl-6-p-tolyl-quinazoline]",59

# More lines, now with the values ahead:
row,IC50 [nM],Molecule
1,> 10000,"Fc1ccc(-c2ccc3nc(OCCN4CCOCC4)nc(N4CCOCC4)c3c2)cc1 [Compound 38, 6-(4-Fluoro-phenyl)-4-morpholin-4-yl-2-(2-morpholin-4-yl-ethoxy)-quinazoline]"
2,347,"COc1ccc(CCOc2nc(N3CCOCC3)c3cc(Oc4ccccc4Cl)ccc3n2)cc1OC [Compound 34, 6-(2-Chloro-phenoxy)-2-[2-(3,4-dimethoxy-phenyl)-ethoxy]-4-morpholin-4-yl-quinazoline]"
3,> 10000,"COc1ccc(CCOc2nc(N3CCOCC3)c3cc(Nc4cccc(C)c4)ccc3n2)cc1OC [Compound 39, {2-[2-(3,4-Dimethoxy-phenyl)-ethoxy]-4-morpholin-4-yl-quinazolin-6-yl}-m-tolyl-amine]"
4,> 10000,"COc1ccc(CCOc2nc(N3CCOCC3)c3cc(Nc4ccc(C)cc4)ccc3n2)cc1OC [Compound 40, {2-[2-(3,4-Dimethoxy-phenyl)-ethoxy]-4-morpholin-4-yl-quinazolin-6-yl}-p-tolyl-amine]"
5,419,"COc1ccc(-c2ccc3nc(OCCc4ccc(OC)c(OC)c4)nc(N4CCOCC4)c3c2)cc1 [Compound 31, 2-[2-(3,4-Dimethoxy-phenyl)-ethoxy]-6-(4-methoxy-phenyl)-4-morpholin-4-yl-quinazoline]"
6,3000,"COc1ccc(CCOc2nc(N3CCOCC3)c3cc(-c4ccc(C(F)(F)F)cc4)ccc3n2)cc1OC [Compound 32, 2-[2-(3,4-Dimethoxy-phenyl)-ethoxy]-4-morpholin-4-yl-6-(4-trifluoromethyl-phenyl)-quinazoline]"
7,> 10000,"Cc1cccc(-c2cnc3nc(OCCN4CCOCC4)nc(N4CCOCC4)c3c2)c1 [Compound 42, 4-Morpholin-4-yl-2-(2-morpholin-4-yl-ethoxy)-6-m-tolyl-pyrido[2,3-d]pyrimidine]"
8,2500,"Cc1ccc(-c2ccc3nc(OCCN4CCOCC4)nc(N4CCOCC4)c3c2)cc1 [Compound 37, 4-Morpholin-4-yl-2-(2-morpholin-4-yl-ethoxy)-6-p-tolyl-quinazoline]"
9,1400,"FC(F)(F)c1cccc(-c2cnc3nc(OCCN4CCOCC4)nc(N4CCOCC4)c3c2)c1 [Compound 43, 4-Morpholin-4-yl-2-(2-morpholin-4-yl-ethoxy)-6-(3-trifluoromethyl-phenyl)-pyrido[2,3-d]pyrimidine]"
10,> 1000,"c1ccc(Oc2cnc3nc(OCCN4CCOCC4)nc(N4CCOCC4)c3c2)cc1 [Compound 48, 4-Morpholin-4-yl-2-(2-morpholin-4-yl-ethoxy)-6-phenoxy-pyrido[2,3-d]pyrimidine]"
11,770,"c1ccc2oc(-c3cnc4nc(OCCN5CCOCC5)nc(N5CCOCC5)c4c3)cc2c1 [Compound 45, 6-Benzofuran-2-yl-4-morpholin-4-yl-2-(2-morpholin-4-yl-ethoxy)-pyrido[2,3-d]pyrimidine]"
12,> 1000,"Cc1ccccc1Oc1cnc2nc(OCCN3CCOCC3)nc(N3CCOCC3)c2c1 [Compound 46, 4-Morpholin-4-yl-2-(2-morpholin-4-yl-ethoxy)-6-o-tolyloxy-pyrido[2,3-d]pyrimidine]"

# Same assay, conditions: Homo sapiens; in an assay according to Example 12
row,IC50 [nM],Molecule
1,5400,"Cc1cccc(-c2cc(O)c3cc(OCCN4CCOCC4)cc(N4CCOCC4)c3n2)c1 [Compound 49, 8-Morpholin-4-yl-6-(2-morpholin-4-yl-ethoxy)-2-m-tolyl-quinolin-4-ol]"

# Same assay, conditions: assay of Example 12; if more than one assay was performed, only the most active IC50 result is reported
row,IC50 [nM],Molecule
1,370,2-Methyl-1-(4-morpholin-4-yl-6-m-tolyl-quinazolin-2-yloxy)-propan-2-ol [Compound 17]

# Same assay, conditions: measured in an assay according to Example 12; human PBMC or THP-1 cells
row,IC50 [nM],Molecule
1,800,"COc1cc2nc(N3CCOCC3)nc(N/N=C/c3cccc(C)c3)c2cc1OCCOc1ccccc1 [Compound 9, N-[7-Methoxy-2-morpholin-4-yl-6-(2-phenoxy-ethoxy)-quinazolin-4-yl]-N′-(3-methyl-benzylidene)-hydrazine]"
2,10000,"COc1cc2nc(N3CCOCC3)nc(Nc3cccc(C)c3)c2cc1OC [Compound 11, (6,7-Dimethoxy-2-morpholin-4-yl-quinazolin-4-yl)-m-tolyl-amine]"
3,98.8,"COc1cc2nc(N3CCOCC3)nc(NN=Cc3cccc(C)c3)c2cc1OC [Compound 1, N-(6,7-Dimethoxy-2-morpholin-4-yl-quinazolin-4-yl)-N′-(3-methyl-benzylidene)-hydrazine]"
4,60.5,"COc1cc2nc(N3CCOCC3)nc(NC(=O)Nc3cccc(C)c3)c2cc1OC [Compound 6, 1-(6,7-dimethoxy-2-morpholin-4-yl-quinazolin-4-yl)-3-m-tolyl-urea]"
5,109,"COc1cc2nc(N3CCOCC3)nc(Nc3ccc4[nH]c(C)c(C)c4c3)c2cc1OC [Compound 2, (6,7-Dimethoxy-2-morpholin-4-yl-quinazolin-4-yl)-(2,3-dimethyl-1H-indol-5-yl)-amine]"
6,5000,"Cc1[nH]c2ccc(Nc3nc(N4CCOCC4)nc4ccc([N+](=O)[O-])cc34)cc2c1C [Compound 10, (2,3-Dimethyl-1H-indol-5-yl)-(2-morpholin-4-yl-6-nitro-quinazolin-4-yl)-amine]"
7,298,"Cc1cccc(/C=N/Nc2nc(N3CCOCC3)nc3cc(Cl)ccc23)c1 [Compound 8, N-(7-Chloro-2-morpholin-4-yl-quinazolin-4-yl)-N′-(3-methyl-benzylidene)-hydrazine]"
